Results reported in patent publication EP0726263A2, “Herbicidal (1,3,4)oxadiazoles and thiadiazoles” (American Cyanamid Company, priority 1995, dated 1996).

How the values were obtained:
Type in all cases: in vivo
Abutilon theophrasti [1] = assay: Herbicidal activity, preemergence test; conditions: pre; sprayed onto soil, 800 g of active material per hectare; evaluated 3 weeks after treatment
Experimental: (§1) To evaluate their herbicidal activity, compounds according to the invention are tested using a representative range of plants: TRZAW Triticum aestivum HORVW Hordeum vulgare ZEAMX Zea mays GOSHI Gossypium hirsutum HELAN Helianthus annuus GLYMA Glycine max ALOMY Alopecurus myosuroides SETVI Setaria viridis ECHCG Echinochloa crus-galli GALAP Galium aparine STEME Stellaria media VERPE Veronica persica VIOAR Viola arvensis IPOHE Ipomoea hederacea LAMPU Lamium purpureum PAPRH Papaver rhoeas MATIN Matricaria inodora AMARE Amaranthus retroflexus ABUTH Abutilon theophrasti AMBEL Ambrosia artemisifolia CHEAL Chenopodium album
(§2) The tests fall into two categories, preemergence and postemergence. The preemergence tests involve spraying a liquid formulation of the compound onto the soil in which the seeds have recently been sown. The postemergence tests involve spraying a liquid formulation of the compound onto seedling plants.
(§3) The soil used in the tests is a prepared horticultural loam.
(§4) The formulations used in the tests are prepared from solutions of the test compounds in acetone containing 0.4% by weight of an alkylphenol/ethylene oxide condensate available under the trade mark TRITON X-155. These acetone solutions are diluted with water and the resulting formulations applied at dosage levels corresponding to 800 g of active material per hectare in a volume equivalent to 900 litres per hectare.
(§5) In the preemergence tests untreated sown soil and in the postemergence tests untreated soil bearing seedling plants are used as controls.
(§6) Results of herbicide evaluation are expressed on a rating scale (0-9). The scale is based upon a visual observation of plant stand, vigor, malformation, size, chlorosis, and general plant appearance as compared to a control. Preemergence and postemergence treatments are evaluated at 3 and 2 weeks after treatment, respectively.

Alopecurus myosuroides [2] = assay: Herbicidal activity, preemergence test; conditions: pre; sprayed onto soil, 800 g of active material per hectare; evaluated 3 weeks after treatment
Experimental: as §1, §2, §3, §4, §5, §6

Amaranthus retroflexus [3] = assay: Herbicidal activity, preemergence test; conditions: pre; sprayed onto soil, 800 g of active material per hectare; evaluated 3 weeks after treatment
Experimental: as §1, §2, §3, §4, §5, §6

Ambrosia artemisifolia [4] = assay: Herbicidal activity, preemergence test; conditions: pre; sprayed onto soil, 800 g of active material per hectare; evaluated 3 weeks after treatment
Experimental: as §1, §2, §3, §4, §5, §6

Chenopodium album [5] = assay: Herbicidal activity, preemergence test; conditions: pre; sprayed onto soil, 800 g of active material per hectare; evaluated 3 weeks after treatment
Experimental: as §1, §2, §3, §4, §5, §6

Galium aparine [6] = assay: Herbicidal activity, preemergence test; conditions: pre; sprayed onto soil, 800 g of active material per hectare; evaluated 3 weeks after treatment
Experimental: as §1, §2, §3, §4, §5, §6

Glycine max [7] = assay: Herbicidal activity, preemergence test; conditions: pre; sprayed onto soil, 800 g of active material per hectare; evaluated 3 weeks after treatment
Experimental: as §1, §2, §3, §4, §5, §6

Gossypium hirsutum [8] = assay: Herbicidal activity, preemergence test; conditions: pre; sprayed onto soil, 800 g of active material per hectare; evaluated 3 weeks after treatment
Experimental: as §1, §2, §3, §4, §5, §6

Hordeum vulgare [9] = assay: Herbicidal activity, preemergence test; conditions: pre; sprayed onto soil, 800 g of active material per hectare; evaluated 3 weeks after treatment
Experimental: as §1, §2, §3, §4, §5, §6

Ipomoea hederacea [10] = assay: Herbicidal activity, preemergence test; conditions: pre; sprayed onto soil, 800 g of active material per hectare; evaluated 3 weeks after treatment
Experimental: as §1, §2, §3, §4, §5, §6

Lamium purpureum [11] = assay: Herbicidal activity, preemergence test; conditions: pre; sprayed onto soil, 800 g of active material per hectare; evaluated 3 weeks after treatment
Experimental: as §1, §2, §3, §4, §5, §6

Matricaria inodora [12] = assay: Herbicidal activity, preemergence test; conditions: pre; sprayed onto soil, 800 g of active material per hectare; evaluated 3 weeks after treatment
Experimental: as §1, §2, §3, §4, §5, §6

Papaver rhoeas [13] = assay: Herbicidal activity, preemergence test; conditions: pre; sprayed onto soil, 800 g of active material per hectare; evaluated 3 weeks after treatment
Experimental: as §1, §2, §3, §4, §5, §6

Setaria viridis [14] = assay: Herbicidal activity, preemergence test; conditions: pre; sprayed onto soil, 800 g of active material per hectare; evaluated 3 weeks after treatment
Experimental: as §1, §2, §3, §4, §5, §6

Stellaria media [15] = assay: Herbicidal activity, preemergence test; conditions: pre; sprayed onto soil, 800 g of active material per hectare; evaluated 3 weeks after treatment
Experimental: as §1, §2, §3, §4, §5, §6

Triticum aestivum [16] = assay: Herbicidal activity, preemergence test; conditions: pre; sprayed onto soil, 800 g of active material per hectare; evaluated 3 weeks after treatment
Experimental: as §1, §2, §3, §4, §5, §6

Veronica persica [17] = assay: Herbicidal activity, preemergence test; conditions: pre; sprayed onto soil, 800 g of active material per hectare; evaluated 3 weeks after treatment
Experimental: as §1, §2, §3, §4, §5, §6

Zea mays [18] = assay: Herbicidal activity, preemergence test; conditions: pre; sprayed onto soil, 800 g of active material per hectare; evaluated 3 weeks after treatment
Experimental: as §1, §2, §3, §4, §5, §6

Abutilon theophrasti [19] = assay: Herbicidal activity, postemergence test; conditions: post; sprayed onto seedling plants, 800 g of active material per hectare; evaluated 2 weeks after treatment
Experimental: as §1, §2, §3, §4, §5, §6

Alopecurus myosuroides [20] = assay: Herbicidal activity, postemergence test; conditions: post; sprayed onto seedling plants, 800 g of active material per hectare; evaluated 2 weeks after treatment
Experimental: as §1, §2, §3, §4, §5, §6

Amaranthus retroflexus [21] = assay: Herbicidal activity, postemergence test; conditions: post; sprayed onto seedling plants, 800 g of active material per hectare; evaluated 2 weeks after treatment
Experimental: as §1, §2, §3, §4, §5, §6

Ambrosia artemisifolia [22] = assay: Herbicidal activity, postemergence test; conditions: post; sprayed onto seedling plants, 800 g of active material per hectare; evaluated 2 weeks after treatment
Experimental: as §1, §2, §3, §4, §5, §6

Chenopodium album [23] = assay: Herbicidal activity, postemergence test; conditions: post; sprayed onto seedling plants, 800 g of active material per hectare; evaluated 2 weeks after treatment
Experimental: as §1, §2, §3, §4, §5, §6

Galium aparine [24] = assay: Herbicidal activity, postemergence test; conditions: post; sprayed onto seedling plants, 800 g of active material per hectare; evaluated 2 weeks after treatment
Experimental: as §1, §2, §3, §4, §5, §6

Glycine max [25] = assay: Herbicidal activity, postemergence test; conditions: post; sprayed onto seedling plants, 800 g of active material per hectare; evaluated 2 weeks after treatment
Experimental: as §1, §2, §3, §4, §5, §6

Gossypium hirsutum [26] = assay: Herbicidal activity, postemergence test; conditions: post; sprayed onto seedling plants, 800 g of active material per hectare; evaluated 2 weeks after treatment
Experimental: as §1, §2, §3, §4, §5, §6

Hordeum vulgare [27] = assay: Herbicidal activity, postemergence test; conditions: post; sprayed onto seedling plants, 800 g of active material per hectare; evaluated 2 weeks after treatment
Experimental: as §1, §2, §3, §4, §5, §6

Ipomoea hederacea [28] = assay: Herbicidal activity, postemergence test; conditions: post; sprayed onto seedling plants, 800 g of active material per hectare; evaluated 2 weeks after treatment
Experimental: as §1, §2, §3, §4, §5, §6

Lamium purpureum [29] = assay: Herbicidal activity, postemergence test; conditions: post; sprayed onto seedling plants, 800 g of active material per hectare; evaluated 2 weeks after treatment
Experimental: as §1, §2, §3, §4, §5, §6

Matricaria inodora [30] = assay: Herbicidal activity, postemergence test; conditions: post; sprayed onto seedling plants, 800 g of active material per hectare; evaluated 2 weeks after treatment
Experimental: as §1, §2, §3, §4, §5, §6

Papaver rhoeas [31] = assay: Herbicidal activity, postemergence test; conditions: post; sprayed onto seedling plants, 800 g of active material per hectare; evaluated 2 weeks after treatment
Experimental: as §1, §2, §3, §4, §5, §6

Setaria viridis [32] = assay: Herbicidal activity, postemergence test; conditions: post; sprayed onto seedling plants, 800 g of active material per hectare; evaluated 2 weeks after treatment
Experimental: as §1, §2, §3, §4, §5, §6

Stellaria media [33] = assay: Herbicidal activity, postemergence test; conditions: post; sprayed onto seedling plants, 800 g of active material per hectare; evaluated 2 weeks after treatment
Experimental: as §1, §2, §3, §4, §5, §6

Triticum aestivum [34] = assay: Herbicidal activity, postemergence test; conditions: post; sprayed onto seedling plants, 800 g of active material per hectare; evaluated 2 weeks after treatment
Experimental: as §1, §2, §3, §4, §5, §6

Veronica persica [35] = assay: Herbicidal activity, postemergence test; conditions: post; sprayed onto seedling plants, 800 g of active material per hectare; evaluated 2 weeks after treatment
Experimental: as §1, §2, §3, §4, §5, §6

Zea mays [36] = assay: Herbicidal activity, postemergence test; conditions: post; sprayed onto seedling plants, 800 g of active material per hectare; evaluated 2 weeks after treatment
Experimental: as §1, §2, §3, §4, §5, §6

Q: C[C@H](NC(=O)c1nnc(-c2ccc(F)cc2)o1)c1ccccc1 [Example 7] was tested. Which “ABUTH control rating (0-9)” value (Abutilon theophrasti [1]) did it give?
A: The value was 8 (approaching complete kill).

Q: And the “ALOMY control rating (0-9)” value (Alopecurus myosuroides [2])?
A: The value was 4 (injury).

Q: What about the “AMARE control rating (0-9)” value (Amaranthus retroflexus [3]) of the same molecule?
A: Its value is 9 (complete kill).

Q: And the “AMBEL control rating (0-9)” value (Ambrosia artemisifolia [4])?
A: The value was 0 (no effect).

Q: What about the “CHEAL control rating (0-9)” value (Chenopodium album [5]) of the same molecule?
A: Its value is 8 (approaching complete kill).

Q: What about the “GALAP control rating (0-9)” value (Galium aparine [6]) of the same molecule?
A: Its value is 1 (trace effect).

Q: What about the “GLXMA control rating (0-9)” value (Glycine max [7]) of the same molecule?
A: Its value is 1 (trace effect).

Q: And the “GOSHI control rating (0-9)” value (Gossypium hirsutum [8])?
A: Its value is 0 (no effect).

Q: And the “HORVW control rating (0-9)” value (Hordeum vulgare [9])?
A: Its value is 0 (no effect).

Q: What about the “IPOHE control rating (0-9)” value (Ipomoea hederacea [10]) of the same molecule?
A: Its value is 0 (no effect).

Q: And the “LAMPU control rating (0-9)” value (Lamium purpureum [11])?
A: Its value is 9 (complete kill).

Q: And the “MATIN control rating (0-9)” value (Matricaria inodora [12])?
A: Its value is 9 (complete kill).

Q: What about the “PAPRH control rating (0-9)” value (Papaver rhoeas [13]) of the same molecule?
A: Its value is 9 (complete kill).

Q: What about the “SETVI control rating (0-9)” value (Setaria viridis [14]) of the same molecule?
A: The value was 9 (complete kill).

Q: What about the “STEME control rating (0-9)” value (Stellaria media [15]) of the same molecule?
A: The value was 9 (complete kill).

Q: What about the “TRZAW control rating (0-9)” value (Triticum aestivum [16]) of the same molecule?
A: The value was 0 (no effect).

Q: And the “VERPE control rating (0-9)” value (Veronica persica [17])?
A: The value was 9 (complete kill).

Q: And the “ZEAMX control rating (0-9)” value (Zea mays [18])?
A: The value was 0 (no effect).

Q: And the “ABUTH control rating (0-9)” value (Abutilon theophrasti [19])?
A: Its value is 9 (complete kill).

Q: And the “ALOMY control rating (0-9)” value (Alopecurus myosuroides [20])?
A: Its value is 5 (definite injury).

Q: What about the “AMARE control rating (0-9)” value (Amaranthus retroflexus [21]) of the same molecule?
A: Its value is 9 (complete kill).

Q: What about the “AMBEL control rating (0-9)” value (Ambrosia artemisifolia [22]) of the same molecule?
A: Its value is 8 (approaching complete kill).

Q: What about the “CHEAL control rating (0-9)” value (Chenopodium album [23]) of the same molecule?
A: Its value is 9 (complete kill).

Q: What about the “GALAP control rating (0-9)” value (Galium aparine [24]) of the same molecule?
A: Its value is 7 (good herbicidal effect).

Q: What about the “GLXMA control rating (0-9)” value (Glycine max [25]) of the same molecule?
A: Its value is 8 (approaching complete kill).

Q: And the “GOSHI control rating (0-9)” value (Gossypium hirsutum [26])?
A: Its value is 9 (complete kill).

Q: And the “HORVW control rating (0-9)” value (Hordeum vulgare [27])?
A: The value was 5 (definite injury).

Q: What about the “IPOHE control rating (0-9)” value (Ipomoea hederacea [28]) of the same molecule?
A: Its value is 9 (complete kill).

Q: What about the “LAMPU control rating (0-9)” value (Lamium purpureum [29]) of the same molecule?
A: Its value is 9 (complete kill).

Q: And the “MATIN control rating (0-9)” value (Matricaria inodora [30])?
A: The value was 9 (complete kill).

Q: What about the “PAPRH control rating (0-9)” value (Papaver rhoeas [31]) of the same molecule?
A: Its value is 9 (complete kill).

Q: What about the “SETVI control rating (0-9)” value (Setaria viridis [32]) of the same molecule?
A: The value was 9 (complete kill).

Q: And the “STEME control rating (0-9)” value (Stellaria media [33])?
A: The value was 9 (complete kill).

Q: What about the “TRZAW control rating (0-9)” value (Triticum aestivum [34]) of the same molecule?
A: The value was 4 (injury).

Q: And the “VERPE control rating (0-9)” value (Veronica persica [35])?
A: Its value is 9 (complete kill).

Q: And the “ZEAMX control rating (0-9)” value (Zea mays [36])?
A: Its value is 2 (slight effect).
